Measurements from patent US9150548B2, “Combinations of AKT inhibitor compounds and vemurafenib, and methods of use” (Genentech, Inc., priority 2011, dated 2015).

How the values were obtained:
[1] = system: LuCap35V primary human prostate tumor model; assay: In vivo tumor xenograft efficacy, LuCap35V (FIG. 1); parameters: species or system mice
Excerpt: FIG. 1 illustrates results for the compound of Example 2 and docetaxel in LuCap35V primary prostate tumors. FIG. 2 illustrates results for the compound of Example 2 dosed intermittently either PO or IP and docetaxel in PC3-NCI prostate tumors. FIG. 3 illustrates results for the compound of Example 2 dosed PO and docetaxel in PC3-NCI prostate tumors. FIG. 4 illustrates results for the compound of Example 2 dosed IP intermittently and docetaxel in MCF7-neo/HER2 tumors. FIG. 5 illustrates results for the compound of Example 2 dosed PO and docetaxel in MCF7-neo/HER2 breast tumors. FIG. 6 illustrates results for the compound of Example 2 and docetaxel in MAXF401 mammary tumors. FIG. 7 illustrates results for the compound of Example 2 and docetaxel in SKOV3 ovarian tumors. FIG. 8 illustrates results for the compound of Example 2 and cisplatnin in SKOV3 ovarian tumors. FIG. 9 illustrates results for the compound of Example 2 dosed PO and carboplatin in IGROV-1 ovarian tumors. FIG. 10 illustrates results for the compound of Example 2 and GDC-0973 at 2.5 mg/kg in H2122 NCI-NSCL tumors. FIG. 11 illustrates results for the compound of Example 2 and GDC-0973 at 5.0 mg/kg in NCI-H2122 NSCLC tumors. FIG. 12 illustrates results for the compound of Example 2 and GDC-0973 at 7.5 mg/kg in NCI-H2122 NSCLC tumors. FIG. 13 illustrates results for the compound of Example 2 and MDV3100 in LuCap35V tumors.

[2] = system: prostate specific antigen serum levels; settings: after a month of taking the medicine; cited from earlier work
[3] = active metabolite vs irinotecan itself; cited from earlier work
[4] = system: PTEN null line; assay: CellTiter-Glo combination assay with docetaxel (FIG. 19); type: cell-based
Excerpt: Viable cells are reflected in relative luminescence units (RLU).

CC(=O)O[C@@]12CO[C@@H]1C[C@H](O)[C@@]1(C)C(=O)[C@H](O)C3=C(C)[C@@H](OC(=O)[C@H](O)[C@@H](NC(=O)OC(C)(C)C)c4ccccc4)C[C@@](O)([C@@H](OC(=O)c4ccccc4)[C@H]21)C3(C)C [docetaxel, (2R,3S)—N-carboxy-3-phenylisoserine, N-tert-butyl ester, 13-ester with 5, 20-epoxy-1,2,4,7,10,13-hexahydroxytax-11-en-9-one 4-acetate 2-benzoate, trihydrate]
tumor response (FIG. 1) [1]: tumor stasis

CNC(=O)c1ccc(N2C(=S)N(c3ccc(C#N)c(C(F)(F)F)c3)C(=O)C2(C)C)cc1F [MDV3100, 4-(3-(4-cyano-3-(trifluoromethyl)phenyl)-5,5-dimethyl-4-oxo-2-thioxoimidazolidin-1-yl)-2-fluoro-N-methylbenzamide]
decrease in prostate specific antigen serum levels [2]: ≤ 89%

CCc1c2c(nc3ccc(O)cc13)-c1cc3c(c(=O)n1C2)COC(=O)[C@]3(O)CC [SN-38, 7-ethyl-10-hydroxy-camptothecin]
activity relative to irinotecan [3]: 200 times

CC(C)NC[C@@H](C(=O)N1CCN(c2ncnc3c2[C@H](C)C[C@H]3O)CC1)c1ccc(Cl)cc1 [Example 2, (S)-2-(4-chlorophenyl)-1-(4-((5R,7R)-7-hydroxy-5-methyl-6,7-dihydro-5H-cyclopenta[d]pyrimidin-4-yl)piperazin-1-yl)-3-(isopropylamino)propan-1-one]
single agent response [4]: minimal single agent response
tumor response (FIG. 1) [1]: tumor stasis
